In one series the test system is BaF3. Description: Inhibition of ALK L1196M mutant in mouse BA/F3 cells assessed as inhibition of cell proliferation after 72 hrs by WST1 assay. Format: cell-based.
Series [1] concerns the target ALK tyrosine kinase receptor (Homo sapiens, UniProt Q9UM73, L1196M). Description: Inhibition of ALK L1196M mutant (unknown origin) after 30 mins by HTRF assay.
For the next series, the target named is EML4-ALK (Homo sapiens) (UniProt Q9UM73+Q9HC35). Description: Inhibition of EML4-ALK in human NCI-H3122 cells assessed as inhibition of cell proliferation after 72 hrs by SRB assay. Format: cell-based.
In series [2] the target is ALK tyrosine kinase receptor (Homo sapiens, UniProt Q9UM73). Description: Inhibition of wild type ALK (unknown origin) after 30 mins by HTRF assay.
A short description of series [3]: Half life in cannulated Sprague Dawley rat at 10 mg/kg administered through oral gavage by LC/MS/MS analysis. It is filed as ADME, organism-based. The conditions noted are these: in vivo.
The next series addresses CYP2C19 (Homo sapiens, UniProt P33261). Description: Inhibition of CYP2C19 (unknown origin) at 10 uM. It is filed as ADME.
A short description of series [4]: Metabolic stability of the compound in mouse liver microsomes assessed as compound remaining at 1 uM after 30 mins by LC/MS/MS analysis in the presence of NADPH. Format: ADME. The settings on record: read-out: Stability.
In the next series the target is CYP2C9 (Homo sapiens, UniProt P11712). Description: Inhibition of CYP2C9 (unknown origin) at 10 uM. It is filed as ADME.
The next series deals with Mus musculus. The experiment in a line: Toxicity in SCID mouse xenografted with human H3122 cells assessed as change in body weight at 50 mg/kg, po administered qd for 14 days measured during compound dosing. The settings on record: in vivo, 336 h. It is filed as organism-based.
A further series addresses CYP3A4 (Homo sapiens, UniProt P08684). The experiment in a line: Inhibition of CYP3A4 (unknown origin) at 10 uM. It is filed as ADME.
A short description of series [5]: Cmax in cannulated Sprague Dawley rat at 10 mg/kg administered through oral gavage by LC/MS/MS analysis. Format: ADME, organism-based. Also noted: dose 10 mg/kg, route oral. The conditions noted are these: in vivo.
The next series deals with NCI-H3122. The experiment in a line: Antitumor activity against human NCI-H3122 cells xenografted in SCID mouse assessed as tumor growth inhibition at 50 mg/kg, po administered qd for 14 days. Format: functional, organism-based.
Series [6] in a line: AUCt in cannulated Sprague Dawley rat at 10 mg/kg administered through oral gavage by LC/MS/MS analysis. The conditions noted are these: in vivo. It is filed as ADME, organism-based.
For the next series, the target named is CYP1A2 (Homo sapiens, UniProt P05177). Description: Inhibition of CYP1A2 (unknown origin) at 10 uM. It is filed as ADME.
A short description of series [7]: Tmax in cannulated Sprague Dawley rat at 10 mg/kg administered through oral gavage by LC/MS/MS analysis. Format: ADME, organism-based. The settings on record: in vivo.
Series [8] is described as follows: Metabolic stability of the compound in human liver microsomes assessed as compound remaining at 1 uM after 30 mins by LC/MS/MS analysis in the presence of NADPH. Format: ADME. The settings on record: read-out: Stability.
The target in the next series is CYP2D6 (Homo sapiens, UniProt P10635). Description: Inhibition of CYP2D6 (unknown origin) at 10 uM. It is filed as ADME.
Series [9] in a line: AUCinfinity in cannulated Sprague Dawley rat at 10 mg/kg administered through oral gavage by LC/MS/MS analysis. Format: ADME, organism-based. Also noted: dose 10 mg/kg, time infinity, route oral. The settings on record: in vivo.

Active and inactive are the calls of the source. The calls are words filed in the database; no cut-off is given here.

Chain of ALK tyrosine kinase receptor (Homo sapiens, UniProt Q9UM73) (Q9UM73 whole entry): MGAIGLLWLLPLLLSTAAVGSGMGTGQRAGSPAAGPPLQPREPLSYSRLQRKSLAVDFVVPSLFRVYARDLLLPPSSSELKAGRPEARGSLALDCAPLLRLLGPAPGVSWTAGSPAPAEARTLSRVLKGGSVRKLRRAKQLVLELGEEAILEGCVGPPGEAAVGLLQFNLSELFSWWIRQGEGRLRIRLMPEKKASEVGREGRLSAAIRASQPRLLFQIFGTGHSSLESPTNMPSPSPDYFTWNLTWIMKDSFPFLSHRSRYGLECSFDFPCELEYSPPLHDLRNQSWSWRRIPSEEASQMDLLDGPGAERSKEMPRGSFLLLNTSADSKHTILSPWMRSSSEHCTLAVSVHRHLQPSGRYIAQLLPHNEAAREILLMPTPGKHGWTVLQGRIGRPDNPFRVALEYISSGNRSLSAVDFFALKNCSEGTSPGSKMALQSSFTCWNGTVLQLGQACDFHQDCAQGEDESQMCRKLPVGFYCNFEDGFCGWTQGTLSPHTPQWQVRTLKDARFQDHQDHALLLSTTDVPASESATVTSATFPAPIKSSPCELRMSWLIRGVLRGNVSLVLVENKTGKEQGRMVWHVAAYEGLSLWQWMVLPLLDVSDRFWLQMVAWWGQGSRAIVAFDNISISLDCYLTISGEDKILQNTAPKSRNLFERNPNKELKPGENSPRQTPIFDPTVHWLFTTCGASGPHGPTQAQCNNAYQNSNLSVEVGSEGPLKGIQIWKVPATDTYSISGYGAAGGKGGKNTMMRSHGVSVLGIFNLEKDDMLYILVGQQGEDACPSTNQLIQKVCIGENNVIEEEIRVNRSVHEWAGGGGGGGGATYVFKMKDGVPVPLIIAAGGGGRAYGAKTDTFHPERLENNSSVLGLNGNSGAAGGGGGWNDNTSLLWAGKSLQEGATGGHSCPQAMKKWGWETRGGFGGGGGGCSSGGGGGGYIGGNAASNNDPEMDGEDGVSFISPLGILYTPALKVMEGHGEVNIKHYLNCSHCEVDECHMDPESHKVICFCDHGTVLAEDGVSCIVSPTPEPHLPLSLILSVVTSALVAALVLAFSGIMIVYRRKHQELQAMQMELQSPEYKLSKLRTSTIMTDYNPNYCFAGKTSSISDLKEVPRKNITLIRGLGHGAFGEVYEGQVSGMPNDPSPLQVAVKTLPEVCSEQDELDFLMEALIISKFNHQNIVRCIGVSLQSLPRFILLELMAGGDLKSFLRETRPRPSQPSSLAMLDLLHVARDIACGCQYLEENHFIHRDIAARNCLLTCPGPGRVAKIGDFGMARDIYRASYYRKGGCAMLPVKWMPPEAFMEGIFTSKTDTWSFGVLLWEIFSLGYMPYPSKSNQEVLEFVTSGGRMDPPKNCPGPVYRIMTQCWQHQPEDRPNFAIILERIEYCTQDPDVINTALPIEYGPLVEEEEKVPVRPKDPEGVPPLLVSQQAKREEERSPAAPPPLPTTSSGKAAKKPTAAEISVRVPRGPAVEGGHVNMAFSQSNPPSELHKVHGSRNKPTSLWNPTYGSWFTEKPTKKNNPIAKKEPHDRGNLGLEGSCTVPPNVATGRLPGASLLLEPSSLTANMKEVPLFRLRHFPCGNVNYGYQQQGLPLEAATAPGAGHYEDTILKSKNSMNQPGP
Chain of ALK tyrosine kinase receptor (Homo sapiens, UniProt Q9UM73, L1196M) (Q9UM73 19-1620 L1196M limits assumed): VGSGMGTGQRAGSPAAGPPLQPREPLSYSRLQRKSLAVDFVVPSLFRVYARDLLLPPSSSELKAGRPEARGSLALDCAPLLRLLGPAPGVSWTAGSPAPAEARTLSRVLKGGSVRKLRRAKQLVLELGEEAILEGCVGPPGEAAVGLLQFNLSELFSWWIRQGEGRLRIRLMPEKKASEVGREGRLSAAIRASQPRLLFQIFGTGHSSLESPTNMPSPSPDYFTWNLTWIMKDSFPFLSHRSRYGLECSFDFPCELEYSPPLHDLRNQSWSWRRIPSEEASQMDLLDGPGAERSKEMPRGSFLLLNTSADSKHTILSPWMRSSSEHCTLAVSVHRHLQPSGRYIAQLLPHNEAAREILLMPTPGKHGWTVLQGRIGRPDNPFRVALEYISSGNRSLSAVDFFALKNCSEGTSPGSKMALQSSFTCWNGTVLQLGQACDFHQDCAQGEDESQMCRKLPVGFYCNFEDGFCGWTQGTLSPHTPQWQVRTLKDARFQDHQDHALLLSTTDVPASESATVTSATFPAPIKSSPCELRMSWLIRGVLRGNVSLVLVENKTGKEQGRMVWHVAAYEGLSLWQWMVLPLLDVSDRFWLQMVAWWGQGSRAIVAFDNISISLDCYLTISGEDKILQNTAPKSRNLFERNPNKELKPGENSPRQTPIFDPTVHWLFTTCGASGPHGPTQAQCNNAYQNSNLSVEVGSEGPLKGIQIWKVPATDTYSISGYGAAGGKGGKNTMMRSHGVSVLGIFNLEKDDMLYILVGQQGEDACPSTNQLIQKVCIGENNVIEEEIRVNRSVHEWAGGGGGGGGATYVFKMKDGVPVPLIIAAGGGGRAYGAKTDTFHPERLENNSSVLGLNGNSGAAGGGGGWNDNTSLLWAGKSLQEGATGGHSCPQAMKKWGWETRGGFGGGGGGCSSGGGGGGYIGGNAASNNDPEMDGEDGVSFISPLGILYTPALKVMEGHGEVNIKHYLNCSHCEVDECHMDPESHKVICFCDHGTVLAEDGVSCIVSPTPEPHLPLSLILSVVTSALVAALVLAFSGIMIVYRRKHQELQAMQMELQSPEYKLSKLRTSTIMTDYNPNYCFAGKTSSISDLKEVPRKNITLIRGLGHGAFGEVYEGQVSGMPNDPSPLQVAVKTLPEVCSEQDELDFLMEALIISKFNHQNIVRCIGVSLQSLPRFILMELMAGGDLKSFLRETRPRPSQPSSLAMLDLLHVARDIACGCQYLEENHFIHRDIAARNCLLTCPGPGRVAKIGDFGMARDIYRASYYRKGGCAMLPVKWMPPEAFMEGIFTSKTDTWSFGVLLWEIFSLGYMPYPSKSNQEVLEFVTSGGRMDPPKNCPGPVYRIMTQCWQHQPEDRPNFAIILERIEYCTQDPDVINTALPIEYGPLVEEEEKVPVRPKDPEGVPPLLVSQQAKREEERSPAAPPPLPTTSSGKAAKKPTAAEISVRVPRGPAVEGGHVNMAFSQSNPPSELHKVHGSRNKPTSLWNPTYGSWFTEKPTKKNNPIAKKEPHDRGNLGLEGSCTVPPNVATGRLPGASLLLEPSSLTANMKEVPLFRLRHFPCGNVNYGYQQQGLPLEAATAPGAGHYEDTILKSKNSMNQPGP
Chain of EML4-ALK (Homo sapiens) (Q9HC35 whole entry partner): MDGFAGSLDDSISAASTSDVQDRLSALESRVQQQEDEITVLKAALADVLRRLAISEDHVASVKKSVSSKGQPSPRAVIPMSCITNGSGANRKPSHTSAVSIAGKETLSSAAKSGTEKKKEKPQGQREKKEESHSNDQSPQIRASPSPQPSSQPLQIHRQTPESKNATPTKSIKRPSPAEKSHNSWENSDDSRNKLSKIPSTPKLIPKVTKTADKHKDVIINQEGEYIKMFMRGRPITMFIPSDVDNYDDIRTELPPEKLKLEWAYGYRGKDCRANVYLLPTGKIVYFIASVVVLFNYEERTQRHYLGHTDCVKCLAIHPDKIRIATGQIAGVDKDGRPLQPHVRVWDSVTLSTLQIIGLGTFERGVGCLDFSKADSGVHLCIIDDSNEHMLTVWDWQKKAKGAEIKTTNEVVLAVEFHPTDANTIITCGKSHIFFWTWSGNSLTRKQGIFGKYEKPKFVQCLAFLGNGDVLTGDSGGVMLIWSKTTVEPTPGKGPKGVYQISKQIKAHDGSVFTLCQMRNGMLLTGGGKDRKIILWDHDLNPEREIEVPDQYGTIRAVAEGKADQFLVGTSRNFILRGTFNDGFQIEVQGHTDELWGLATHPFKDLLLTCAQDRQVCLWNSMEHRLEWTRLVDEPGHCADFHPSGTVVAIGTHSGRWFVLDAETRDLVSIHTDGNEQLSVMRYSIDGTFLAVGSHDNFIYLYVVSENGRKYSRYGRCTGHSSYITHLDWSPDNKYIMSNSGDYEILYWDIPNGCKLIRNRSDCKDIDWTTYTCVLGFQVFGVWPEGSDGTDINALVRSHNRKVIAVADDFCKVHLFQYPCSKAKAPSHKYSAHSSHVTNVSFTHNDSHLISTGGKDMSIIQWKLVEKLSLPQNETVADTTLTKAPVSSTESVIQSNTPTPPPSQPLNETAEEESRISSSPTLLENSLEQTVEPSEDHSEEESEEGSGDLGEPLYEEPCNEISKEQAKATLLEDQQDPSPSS
Chain of EML4-ALK (Homo sapiens) (Q9UM73 19-1620 limits assumed): as the sequence (Q9UM73 19-1620 L1196M limits assumed) above, with M1178L counted along it
Chain of CYP2D6 (P10635 whole entry): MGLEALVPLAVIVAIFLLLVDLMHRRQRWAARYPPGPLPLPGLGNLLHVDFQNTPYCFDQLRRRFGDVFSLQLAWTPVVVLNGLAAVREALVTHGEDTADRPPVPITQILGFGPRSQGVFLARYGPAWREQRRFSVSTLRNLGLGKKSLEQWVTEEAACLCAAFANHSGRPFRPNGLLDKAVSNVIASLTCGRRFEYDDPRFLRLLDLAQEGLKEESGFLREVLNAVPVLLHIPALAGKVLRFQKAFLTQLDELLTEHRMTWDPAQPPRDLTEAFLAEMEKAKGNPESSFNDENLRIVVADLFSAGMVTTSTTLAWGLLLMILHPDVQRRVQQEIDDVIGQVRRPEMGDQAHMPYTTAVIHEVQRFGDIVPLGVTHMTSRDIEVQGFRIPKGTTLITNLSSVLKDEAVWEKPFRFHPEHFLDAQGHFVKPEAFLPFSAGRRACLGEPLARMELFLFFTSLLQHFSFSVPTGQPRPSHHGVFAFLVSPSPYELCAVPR

Regarding `COc1cc2c(cc1Nc1ncc(Cl)c(Nc3ccccc3S(=O)(=O)C(C)C)n1)CCC(=O)C2(C)C`, in the series on BaF3, the CC50 stood at 432 nM.
On to `COc1cc2c(cc1Nc1ncc(Cl)c(Nc3ccccc3S(=O)(=O)C(C)C)n1)CC/C(=N\NC(=N)N)C2(C)C`, for which the values for the IC50 in series [1] and in [2] were 37 nM and 18 nM, respectively. Besides, the CC50 with BaF3 came to 1580 nM; at EML4-ALK (Homo sapiens), 235 nM.
The like results for `COc1cc2c(cc1Nc1ncc(Cl)c(Nc3ccccc3S(=O)(=O)C(C)C)n1)C(C)(C)/C(=N/N1CCN(C)CC1)CC2` were, in that order, 200 nM, 44 nM, 2600 nM and 2830 nM.
For `COc1cc2c(cc1Nc1ncc(Cl)c(Nc3ccccc3S(=O)(=O)C(C)C)n1)C(C)(C)C(O)CC2` (stereo unspecified), the IC50 in series [1] was found to be 109 nM; in series [2], 34 nM. Besides, the half-maximal cytotoxic concentration (CC50) in the series with BaF3 was found to be 1600 nM; on EML4-ALK (Homo sapiens) it was 726 nM.
Regarding `COc1cc2c(cc1Nc1ncc(Cl)c(Nc3ccccc3S(=O)(=O)C(C)C)n1)CCC(O)C2(C)C` (stereo unspecified), the IC50 in series [1] came to 56 nM; in series [2] it was 21 nM. The results for the CC50 in the series with BaF3 and at EML4-ALK (Homo sapiens) were 299 nM and 99 nM, respectively.
The like results for `COc1cc2c(cc1Nc1ncc(Cl)c(Nc3ccccc3S(=O)(=O)C(C)C)n1)C(C)(C)C(N)CC2` (stereo unspecified) were, in that order, 94 nM, 27 nM, 1750 nM and 2090 nM.
The corresponding values for `COc1cc2c(cc1Nc1ncc(Cl)c(Nc3ccccc3S(=O)(=O)C(C)C)n1)CC/C(=N\NC(N)=O)C2(C)C` are 42 nM, 29 nM, 334 nM and 117 nM.
The corresponding values for `COc1cc2c(cc1Nc1ncc(Cl)c(Nc3ccccc3S(=O)(=O)C(C)C)n1)CC/C(=N\NC(C)=O)C2(C)C` are 40 nM, 21 nM, 314 nM and 128 nM.
In the case of `COc1cc2c(cc1Nc1ncc(Cl)c(Nc3ccccc3S(=O)(=O)C(C)C)n1)C(C)(C)/C(=N/N1CCOCC1)CC2`, the values for the IC50 in series [1] and in series [2] were 222 nM and 122 nM, respectively. For the same molecule, the CC50 with BaF3 was 1640 nM; on EML4-ALK (Homo sapiens), 732 nM.
As to `COc1cc2c(cc1Nc1ncc(Cl)c(Nc3ccccc3S(=O)(=O)C(C)C)n1)C(C)(C)/C(=N/O)CC2`, the IC50 was 600 nM in series [1] and 424 nM in [2]. Besides, the CC50 with BaF3 is 1360 nM; at EML4-ALK (Homo sapiens), 1220 nM.
The corresponding values for `COc1cc2c(cc1Nc1ncc(Cl)c(Nc3ccccc3S(=O)(=O)C(C)C)n1)C(C)(C)/C(=N/NC(C)=O)CC2` are 201 nM, 52 nM, 640 nM and 146 nM.
For the molecule `COc1cc2c(cc1Nc1ncc(Cl)c(Nc3ccccc3S(=O)(=O)C(C)C)n1)C(C)(C)C(=O)CC2`, the CC50 in the series with BaF3 is 2000 nM.
For `COc1cc2c(cc1Nc1ncc(Cl)c(Nc3ccccc3S(=O)(=O)C(C)C)n1)C(C)(C)/C(=N/NC(N)=O)CC2`, the values for the IC50 in [1] and in series [2] were 97 nM and 16 nM, respectively. Also, the results for the CC50 in the series with BaF3 and on EML4-ALK (Homo sapiens) were 400 nM and 146 nM, respectively.
The like results for `COc1cc2c(cc1Nc1ncc(Cl)c(Nc3ccccc3S(=O)(=O)C(C)C)n1)CCC(NC(=O)CN(C)C)C2(C)C` (stereo unspecified) were, in that order, 3.6 nM, 4.2 nM, 71 nM and 39 nM.
With `COc1cc2c(cc1Nc1ncc(Cl)c(Nc3ccccc3S(=O)(=O)C(C)C)n1)CC/C(=N\O)C2(C)C`, the values for the CC50 in the series on BaF3 and at EML4-ALK (Homo sapiens) were 1530 nM and 276 nM, respectively. Further, the IC50 in series [2] was 212 nM.
As for `COc1cc2c(cc1Nc1ncc(Cl)c(Nc3ccccc3S(=O)(=O)C(C)C)n1)CC/C(=N\N1CCOCC1)C2(C)C`, the IC50 in series [1] and in [2] was 40 nM each time. In addition, the CC50 in the series with BaF3 came to 416 nM; at EML4-ALK (Homo sapiens), 30 nM.
Turning to `COc1cc2c(cc1Nc1ncc(Cl)c(Nc3ccccc3S(=O)(=O)C(C)C)n1)CC/C(=N\N1CCN(C)CC1)C2(C)C`, the half-life in series [3] is 182 min. Also, the inhibition at 10 µM on CYP2C19 came to 43.4%; against CYP2C9, 17.1%; at CYP3A4 it was 47.5%; at CYP1A2, 7.2%; against CYP2D6, 11.4%. For the same molecule, the remaining at 0.5 h, 1 µM turned out to be 14% in series [4] and 20% in series [8]. The Activity entry with Mus musculus is “Non-toxic”. Besides, the IC50 in series [1] was 8.4 nM; in series [2] it was 0.5 nM. Further, the cytotoxic concentration (CC50) with BaF3 amounted to 66 nM; on EML4-ALK (Homo sapiens) it was 14 nM. In series [5], this molecule registered a Cmax of 1270 ng/mL. Besides, the TGI result in the series on NCI-H3122 was “Active”. The AUC(0-t) in series [6] amounted to 3750 ng·h/mL. The Tmax in [7] worked out at 50 min. Besides, in [9], the AUC(0-inf) turned out to be 3760 ng·h/mL.
In the case of `COc1cc2c(cc1Nc1ncc(Cl)c(Nc3ccccc3S(=O)(=O)C(C)C)n1)C(C)(C)/C(=N/NC(=N)N)CC2`, the IC50 in series [1] came out at 100 nM; in series [2], 16 nM. In addition, the values for the CC50 with BaF3 and on EML4-ALK (Homo sapiens) were 2090 nM and 2400 nM, respectively.
Regarding `COc1cc2c(cc1Nc1ncc(Cl)c(Nc3ccccc3S(=O)(=O)C(C)C)n1)CCC(NC(=O)CO)C2(C)C` (stereo unspecified), the figures for the IC50 in [1] and in series [2] were 9.9 nM and 6.1 nM, respectively. Besides, the CC50 in the series on BaF3 worked out at 86 nM; on EML4-ALK (Homo sapiens) it was 44 nM.
Turning to `Cc1cc(Nc2ncc(Cl)c(Nc3ccccc3S(=O)(=O)C(C)C)n2)c(OC(C)C)cc1C1CCNCC1`, the CC50 worked out at 75 nM in the series on BaF3 and 38 nM at EML4-ALK (Homo sapiens). Also, the TGI entry with NCI-H3122 is “Active”.

These data come from ChEMBL document CHEMBL3784918, “Novel 2,4-diaminopyrimidines bearing tetrahydronaphthalenyl moiety against anaplastic lymphoma kinase (ALK): Synthesis, in vitro, ex vivo, and in vivo efficacy studies” (Bioorg Med Chem Lett, 2016).
